Results taken from US6348468B1, “Pyridazine compounds and compositions containing the same” (Kowa Co., Ltd., priority 1997, dated 2002).

CSc1ccc(-c2nn(Cc3ccc(Cl)cc3Cl)c(=S)cc2-c2ccc(F)cc2)cc1 [Example 141, 2-(2,4-dichlorobenzyl)-5-(4-fluorophenyl)-6-[4-(methylthio)phenyl]-2H-pyridazine-3-thione]
melting point: 154 to 154.2 °C

CS(=O)(=O)c1ccc(-c2nn(Cc3ccccc3)c(=S)cc2-c2ccc(F)cc2)cc1 [Example 139, 2-benzyl-5-(4-fluorophenyl)-6-[4-(methylsulfonyl)phenyl]-2H-pyridazine-3-thione]
melting point: 181.8 to 182 °C

CS(=O)(=O)c1ccc(-c2nn(Cc3ccccc3)c(=O)cc2-c2ccc(Cl)cc2)cc1 [Example 97, 2-benzyl-5-(4-chlorophenyl)-6-[4-(methylsulfonyl)phenyl]-2H-pyridazin-3-one]
melting point: 103.2 to 105.7 °C

CS(=O)(=O)c1ccc(-c2nn(Cc3ccc(F)cc3F)c(=O)cc2-c2ccc(Cl)cc2)cc1 [Example 103, 2-(2,4-difluorobenzyl)-5-(4-chlorophenyl)-6-[4-(methylsulfonyl)phenyl]-2H-pyridazin-3-one]
melting point: 173.8 to 173.9 °C

CCn1nc(-c2ccc(OC)c(F)c2)c(-c2ccc(OC)cc2)cc1=O [Example 146, 2-ethyl-6-(3-fluoro-4-methoxyphenyl)-5-(4-methoxyphenyl)-2H-pyridazin-3-one]
melting point: 122.6 to 123.5 °C

COc1ccc(-c2cc(=O)n(Cc3ccc(Cl)cc3)nc2-c2ccc(OC)cc2)cc1 [Example 33, 5,6-bis(4-methoxyphenyl)-2-(4-chlorobenzyl)-2H-pyridazin-3-one]
melting point: 124.2 to 127.3 °C

CS(=O)(=O)c1ccc(-c2nn(Cc3ccc(Cl)cc3Cl)c(=O)cc2-c2ccc(Cl)cc2)cc1 [Example 104, 5-(4-chlorophenyl)-2-(2,4-dichlorobenzyl)-6-[4-(methylsulfonyl)phenyl]-2H-pyridazin-3-one]
melting point: 232.7 to 234.5 °C

C[S+]([O-])c1ccc(-c2nn(Cc3ccc(F)cc3F)c(=O)cc2-c2ccc(Cl)cc2)cc1 (stereo not drawn) [Example 91, 2-(2,4-difluorobenzyl)-5-(4-chlorophenyl)-6-[4-(methylsulfinyl)phenyl]-2H-pyridazin-3-one]
melting point: 155.6 to 155.7 °C

CSc1ccc(-c2nn(CC=Cc3ccccc3)c(=O)cc2-c2ccc(Cl)cc2)cc1 [Example 56, 5-(4-chlorophenyl)-6-[4-(methylthio)phenyl]-2-cinnamyl-2H-pyridazin-3-one]
melting point: 109.3 to 110.2 °C

CSc1ccc(-c2nn(Cc3ccc(Cl)cc3Cl)c(=O)cc2-c2ccc(Cl)cc2)cc1 [Example 54, 5-(4-chlorophenyl)-6-[4-(methylthio)phenyl]-2-(2,4-dichlorobenzyl)-2H-pyridazin-3-one]
melting point: 154.5 to 155 °C

CSc1ccc(Cn2nc(-c3ccc(SC)cc3)c(-c3ccc(F)cc3)cc2=O)cc1 [Example 63, 5-(4-fluorophenyl)-6-[4-(methylthio)phenyl]-2-[4-(methylthio)benzyl]-2H-pyridazin-3-one]
melting point: 116 to 116.1 °C

CS(=O)(=O)c1ccc(-c2nn(CCCc3ccccc3)c(=O)cc2-c2ccc(Cl)cc2)cc1 [Example 108, 5-(4-chlorophenyl)-6-[4-(methylsulfonyl)phenyl]-2-(3-phenylpropyl)-2H-pyridazin-3-one]
melting point: 70.2 to 71.6 °C

CSc1ccc(-c2nn(Cc3ccc(F)cc3F)c(=O)cc2-c2ccc(Cl)cc2)cc1 [Example 53, 5-(4-chlorophenyl)-6-[4-(methylthio)phenyl]-2-(2,4-difluorobenzyl)-2H-pyridazin-3-one]
melting point: 157.4 to 157.5 °C

COC(=O)c1ccc(Cn2nc(-c3ccc(OC)cc3)c(-c3ccc(OC)cc3)cc2=O)cc1 [Example 42, 5,6-bis(4-methoxyphenyl)-2-(4-methoxycarbonylbenzyl)-2H-pyridazin-3-one]
melting point: 185.5 to 186.6 °C

COc1ccc(-c2n[nH]c(=O)cc2-c2ccc(OC)c(F)c2)cc1 [Example 150, 5-(3-fluoro-4-methoxyphenyl)-6-(4-methoxyphenyl)-2H-pyridazin-3-one]
melting point: 212.8 to 213.4 °C

CSc1ccc(-c2nn(Cc3cccnc3)c(=O)cc2-c2ccc(F)cc2)cc1 [Example 67, 5-(4-fluorophenyl)-6-[4-(methylthio)phenyl]-2-(3-pyridylmethyl)-2H-pyridazin-3-one]
melting point: 159.8 to 160.7 °C

CS(=O)(=O)c1ccc(-c2nn(Cc3ccncc3)c(=O)cc2-c2ccc(F)cc2)cc1 [Example 107, 5-(4-fluorophenyl)-6-[4-(methylsulfonyl)phenyl]-2-(4-pyridylmethyl)-2H-pyridazin-3-one]
melting point: 253.3 to 254.5 °C

C[S+]([O-])c1ccc(-c2nn(Cc3ccccc3)c(=O)cc2-c2ccc(Cl)cc2)cc1 (stereo not drawn) [Example 85, 2-benzyl-5-(4-chlorophenyl)-6-[4-(methylsulfinyl)phenyl]-2H-pyridazin-3-one]
melting point: 143.7 to 144.7 °C

COc1ccc(-c2cc(=O)n(Cc3ccncc3)nc2-c2ccc(OC)cc2)cc1 [Example 45, 5,6-bis(4-methoxyphenyl)-2-(4-pyridylmethyl)-2H-pyridazin-3-one]
melting point: 182.1 to 183.1 °C

CS(=O)(=O)c1ccc(-c2n[nH]c(=O)cc2-c2ccc(Cl)cc2)cc1 [Example 98, 5-(4-chlorophenyl)-6-[4-(methylsulfonyl)phenyl]-2H-pyridazin-3-one]
melting point: 254 to 254.7 °C

COc1ccc(Cn2nc(-c3ccc(SC)cc3)c(-c3ccc(F)cc3)cc2=S)cc1 [Example 140, 5-(4-fluorophenyl)-2-(4-methoxybenzyl)-6-(4-(methylthio)phenyl]-2H-pyridazine-3-thione]
melting point: 112.7 to 112.9 °C

COc1ccc(-c2cc(=O)n(CC(C)C)nc2-c2ccc(OC)c(F)c2)cc1 [Example 147, 6-(3-fluoro-4-methoxyphenyl)-2-isobutyl-5-(4-methoxyphenyl)-2H-pyridazin-3-one]
melting point: 86.8 to 87.4 °C

COc1ccc(-c2cc(=O)n(CCC(=O)NCc3ccccc3)nc2-c2ccc(OC)cc2)cc1 [Example 115, 5,6-bis(4-methoxyphenyl)-2-[2-(benzylaminocarbonyl)ethyl]-2H-pyridazin-3-one]
melting point: 135 to 137 °C

CS(=O)(=O)c1ccc(-c2nn(CC3CC3)c(=O)cc2-c2ccc(F)cc2)cc1 [Example 100, 2-cyclopropylmethyl-5-(4-fluorophenyl)-6-[4-(methylsulfonyl)phenyl]-2H-pyridazin-3-one]
melting point: 123.8 to 123.9 °C

COc1ccc(-c2cc(=O)n(Cc3ccccc3)nc2-c2ccc(OC)c(F)c2)cc1F [Example 158, 2-benzyl-5,6-bis(3-fluoro-4-methoxyphenyl)-2H-pyridazin-3-one]
melting point: 114.1 to 115.2 °C

COc1ccc(-c2cc(=O)n(Cc3ccccc3)nc2-c2ccc(OC)c(F)c2)cc1 [Example 144, 2-benzyl-6-(3-fluoro-4-methoxyphenyl)-5-(4-methoxyphenyl)-2H-pyridazin-3-one]
melting point: 136.6 to 137.8 °C

CSc1ccc(-c2nn(Cc3ccccc3)c(=S)cc2-c2ccc(F)cc2)cc1 [Example 138, 2-benzyl-5-(4-fluorophenyl)-6-[4-(methylthio)phenyl]-2H-pyridazine-3-thione]
melting point: 108.1 to 108.2 °C

COc1ccc(-c2nn(Cc3ccccc3)c(=O)cc2-c2ccc(OC)c(F)c2)cc1 [Example 151, 2-benzyl-5-(3-fluoro-4-methoxyphenyl)-6-(4-methoxyphenyl)-2H-pyridazin-3-one]
melting point: 109.6 to 111.6 °C

COc1ccc(-c2nn(Cc3ccncc3)c(=O)cc2-c2ccc(Cl)cc2)cc1 [Example 50, 5-(4-chlorophenyl)-6-(4-methoxyphenyl)-2-(4-pyridylmethyl)-2H-pyridazin-3-one]
melting point: 142 to 143 °C

CS(=O)(=O)c1ccc(-c2nn(Cc3cccnc3)c(=O)cc2-c2ccc(Cl)cc2)cc1 [Example 106, 5-(4-chlorophenyl)-6-[4-(methylsulfonyl)phenyl]-2-(3-pyridylmethyl)-2H-pyridazin-3-one]
melting point: 248 to 248.1 °C

CSc1ccc(C2=NN(Cc3ccccc3)C(=O)CC2c2ccc(Cl)cc2)cc1 (stereo not drawn) [Example 121, 2-benzyl-5-(4-chlorophenyl)-4,5-dihydro-6-[4-(methylthio)phenyl]-2H-pyridazin-3-one]
melting point: 113.5 to 113.9 °C

COc1ccc(-c2cc(=O)n(Cc3ccccn3)nc2-c2ccc(OC)cc2)cc1 [Example 43, 5,6-bis(4-methoxyphenyl)-2-(2-pyridylmethyl)-2H-pyridazin-3-one]
melting point: 116 to 117 °C

COc1ccc(C2=NNC(=O)CC2c2ccc(OC)c(F)c2)cc1 (stereo not drawn) [Example 149, 4,5-dihydro-5-(3-fluoro-4-methoxyphenyl)-6-(4-methoxyphenyl)-2H-pyridazin-3-one]
melting point: 171.2 to 173.4 °C

COc1ccc(-c2nn(Cc3ccccc3)c(=O)cc2-c2ccc(Cl)cc2)cc1 [Example 49, 5-(4-chlorophenyl)-6-(4-methoxyphenyl)-2-benzyl-2H-pyridazin-3-one]
melting point: 165 to 167 °C

CSc1ccc(-c2nn(Cc3ccccc3)c(=O)cc2-c2ccccc2)cc1 [Example 71, 2-benzyl-6-[4-(methylthio)phenyl]-5-phenyl-2H-pyridazin-3-one]
melting point: 157.3 to 158.4 °C

CSc1ccc(-c2n[nH]c(=S)cc2-c2ccc(F)cc2)cc1 [Example 136, 5-(4-fluorophenyl)-6-[4-(methylthio)phenyl]-2H-pyridazine-3-thione]
melting point: 218.7 to 218.9 °C

COc1ccc(-c2cc(=O)n(CC=Cc3ccc(Cl)cc3)nc2-c2ccc(OC)c(F)c2)cc1 [Example 145, 2-(4-chlorocinnamyl)-6-(3-fluoro-4-methoxyphenyl)-5-(4-methoxyphenyl)-2H-pyridazin-3-one]
melting point: 144 to 145.4 °C

COc1ccc(-c2cc(=O)n(CC3CC3)nc2-c2ccc(OC)c(F)c2)cc1F [Example 162, 5,6-bis(3-fluoro-4-methoxyphenyl)-2-cyclopropylmethyl-2H-pyridazin-3-one]
melting point: 142.3 to 142.7 °C

COc1ccc(Cn2nc(-c3ccc([S+](C)[O-])cc3)c(-c3ccc(F)cc3)cc2=O)cc1 (stereo not drawn) [Example 89, 5-(4-fluorophenyl)-2-(4-methoxybenzyl)-6-[4-(methylsulfinyl)phenyl]-2H-pyridazin-3-one]
melting point: 81.3 to 81.5 °C
